Laboratory results from patent US20220072061A1, “SUBSTANCE FOR TREATMENT OR PREVENTION OF DISEASES, METHOD FOR DESIGNING THE SAME, AND METHOD FOR PREPARING THE SAME” (priority 2018, published 2022).
Where a name gives a salt, the structure may show the parent alone.

Experiments:
patients with menoxenia = assay: Clinical study against menoxenia; format: in vivo, human
Text: 1. Clinical data: 60 cases (in total) of outpatients and inpatients with menoxenia were enrolled, and randomly divided into a treatment group of 30 patients and a control group of 30 patients. There was no significant difference between the two groups in clinical data.
2. Diagnosis criteria: Symptoms include disorders in the menstrual cycle and menstrual period, excessive or insufficient bleeding during menstruation, and abdominal pain before and after menstruation.
3. […] Patients in the control group were orally given clomifene citrate capsules (NMPA Approval No. H31021107), 50 mg/day, started on day 5 since menstruation, for 2 consecutive months.
4. Efficacy evaluation criteria: The efficacy evaluation is based on the relevant standards in Guiding Principles for Clinical Research of New Chinese Medicines.
(§1) Total effective rate=cured rate+effective rate.

patients with depression = assay: Clinical study against depression; format: in vivo, human
Method: 1. Clinical data: 60 cases (in total) of outpatients and inpatients with depression were enrolled, and randomly divided into a treatment group of 30 patients and a control group of 30 patients. There was no significant difference between the two groups in clinical data.
2. Diagnosis criteria: The diagnosis criteria for depression from The Diagnostic and Statistical Manual of Mental Disorders.
3. […] Patients in the control group were treated with fluoxetine, the initial and treatment doses both being 20 mg/day, for a course of 4 weeks.
4. Efficacy evaluation criteria: After 4 weeks of treatment, the patients were scored by a psychiatrist based on the Hamilton Depression Rating Scale HAMD-17. “Cured” means a HAMD-17 total score <7; “effective” means a HAMD-17 total score of 8-17; and “ineffective” means a HAMD-17 total score>17.
as §1

[1] = system: patients with allergic rhinitis; assay: Clinical application trial for treatment of allergic rhinitis; format: in vivo, human
Method: There was no significant difference between the two groups in clinical data and conditions. […] Diagnosis criteria: 2 or more clinical symptoms such as sneezing, clear water-like nasal discharge, nasal congestion, and nasal itching, appearing continuously or continually for 1 hour or more every day. It may be accompanied by eye symptoms such as eye itching and conjunctival hyperemia. Common signs often include pale nasal mucosa, edema, and watery nasal discharge. Positive in the allergen skin prick test. 3. […] 4. […] Total effective rate=cured rate+effective rate.

patients with urticaria = assay: Clinical study against urticaria; format: in vivo, human
Method: 1. […]. There was no significant difference between the two groups in clinical data.
3. […] The patients in the control group orally took loratadine 5 mg per time, once day, for 30 days.
(§2) 4. […] Total effective rate=cured rate+markedly effective rate+effective rate.

[2] = system: patients with ankylosing spondylitis; assay: Clinical study in patients with ankylosing spondylitis; format: in vivo, human; settings: number of patients (14 treatment, 13 control); after 1 month
Text: 1. […] 2. […] 3. […] 4. Efficacy evaluation criteria:

hypertensive patients = assay: Clinical study against hypertension; settings: human, in vivo
Method: 1. Clinical data: In this example, totally 46 hypertensive patients were treated and observed clinically, including 25 males and 21 females, 18-75 years old, with a course of disease of 0.5 to 30 years, who were randomly divided into a treatment group of 23 patients and a control group of 23 patients. There was no significant difference between the two groups in clinical data.
2. Diagnosis criteria: According to the Guidelines for Diagnosis of Hypertension in China (2010), hypertension can be diagnosed if the systolic pressure≥140 mmHg and/or the diastolic pressure≥90 mmHg. Grade 1 hypertension: systolic pressure 140 to 159 mmHg and/or diastolic pressure 90 to 99 mmHg; Grade 2 hypertension: systolic pressure 160 to 179 mmHg and/or diastolic pressure 100 to 109 mmHg; Grade 3 hypertension: systolic pressure≥180 mmHg and/or diastolic pressure≥110 mmHg.
3. […] Patients in the control group orally took Levamlodipine Beslate and losartan potassium tablets, 3 times a day under supervision of a physician, and the dose was maintained for 3 months or more.
as §2

[3] = number of patients of 30, allergic rhinitis
[4] = number of patients of 28, chronic urticaria

`CCN(CC)CCOc1ccc(C(=C(Cl)c2ccccc2)c2ccccc2)cc1` [clomifene citrate capsules, clomifene citrate] was tested, and the “Total effective rate (%)” value (patients with menoxenia; after treatment) was 66.67%, the Cured (patients with menoxenia; number of patients of 30) was 0 and the Effective (patients with menoxenia; number of patients of 30) was 10. For the same compound, the Markedly effective (patients with menoxenia; number of patients of 30) was 10.
For `CNCCC(Oc1ccc(C(F)(F)F)cc1)c1ccccc1` (centres unmarked) [fluoxetine], the “Total effective rate (%)” value (patients with depression; cured rate+effective rate, depression, after 4 weeks) was 76.67%, the Cured (patients with depression; number of patients of 30, HAMD-17 total score <7 after 4 weeks) was 9 and the Ineffective (patients with depression; number of patients of 30, HAMD-17 total score >17 after 4 weeks) was 7. For the same compound, the Effective (patients with depression; number of patients of 30, HAMD-17 total score of 8-17 after 4 weeks) was 14.
`CCOC(=O)N1CCC(=C2c3ccc(Cl)cc3CCc3cccnc32)CC1` [loratadine] was tested, and the recurrence ([1]; 6-month follow-up / after drug discontinuance) was “allergic symptoms appeared after contact with allergens after drug discontinuance”, the “drug adverse reaction or drug dependence” value ([1]; during the treatment, of 30 patients) was 5 cases and the Effective [1, 3] was 20. The Ineffective [1, 3] was 10, the Cured ([1]; number of patients of 30, allergic rhinitis, no recurrence for 60 days) was 0 and the “Total effective rate (%)” value (patients with urticaria; cured rate+markedly effective rate+effective rate, chronic urticaria) was 53.57%. For the same compound, the Cured (patients with urticaria; [4]) was 0, the Ineffective (patients with urticaria; [4]) was 13 and the Effective (patients with urticaria; number of patients of 28, wheal subsided by 50% to 80%) was 6. The Markedly effective (patients with urticaria; number of patients of 28, wheal subsided by 80% or more) was 9.
With `O=C(O)c1cc(/N=N/c2ccc(S(=O)(=O)Nc3ccccn3)cc2)ccc1O` [sulfasalazine enteric tablets, sulfasalazine] the Effective [2] was 5, the Ineffective [2] was 6 and the Markedly effective [2] was 2.
Work on “Levamlodipine Beslate and losartan potassium” yielded an adverse drug reactions (hypertensive patients) of 6 cases and a drug dependence (hypertensive patients) of 4 cases.
